Results as given in patent US20260263415A1, “Sulfonamides With Activity in Acute Kidney Injury and Fibrosis” (University of Pittsburgh - Of the Commonwealth System of …, priority 2023, published 2026).

Tested on: Zebrafish larvae injected with gentamicin
Test: Zebrafish gentamicin kidney injury survival assay
Assay type: in vivo
Experimental: Potential efficacy was tested in zebrafish assays, essentially as follows. Zebrafish were maintained as described (see, e.g., Cianciolo Cosentino, C., et al. (2013) Histone deacetylase inhibitor enhances recovery after AKI. J Am Soc Nephrol, 24 (6), 943-53 and Skrypnyk, N. I., et al. (2016) Delayed treatment with PTBA analogs reduces postinjury renal fibrosis after kidney injury. Am J Physiol Renal Physiol, 310 (8), F705-F716), and embryos from Pitt AB wildtype were used. Zebrafish larvae were injected with a single dose of gentamicin at 3 dpf with 7 ng of gentamicin as previously described. Prior to the gentamicin injection, 3 dpf zebrafish larvae were anesthetized in 0.2% tricaine/E3 medium (5 mM NaCl, 0.33 mM CaCl2), 0.33 mM MgSO4, and 0.17 mM KCl). Glass capillaries were pulled to produce microneedles and were aspirated with […] of 7 ng/nL gentamicin solution diluted with filtered saline solution (Aspen Veterinary Resources, Cat No. 17861615). The larvae were injected with 1 nL gentamicin solution, delivered via the common cardinal vein. After injection, larvae were incubated in 50 μg/mL penicillin/streptomycin diluted in E3 medium. […]
Data were analyzed as compounds that extend survival as measured by Kaplan-Meier estimator.
Table A provides preliminary calculated hazard ratios (n=1) for tested compounds (see also FIGS. 3A and 3B). […]

COC(=O)CCCSc1ccccc1 [UPHD 25]
larval survival compared to the injured, untreated control (4 μM from 2 days post-injection, days 5-11 post-fertilization): increase larval survival
survival as measured by Kaplan-Meier estimator (positive control, all survival assays): statistically significant
